{
  "source": "patent US20260335320A1",
  "about": "“ANTI-VIRULENCE AGENTS AND METHODS FOR THE TREATMENT OF PATHOGENIC BACTERIUM” (priority 2023, published 2026)",
  "key": {"[1]": {"test_system": "P. aeruginosa strain PA14", "experiment": "P. aeruginosa-induced cytotoxicity of A549 cells (LDH release)", "details": "25 μM, 5.5 hours"}, "Mycobacterium abscessus": {"test_system": "Mycobacterium abscessus", "experiment": "Intracellular invasion/survival in THP-1-derived macrophages", "assay_type": "cell-based", "details": "25 μM, 2 h plus 2 h with amikacin", "procedure": "FIG. 9. BFA compounds reduce the virulence of M. abscessus. FIG. 9 provides a graph showing the results after THP-1-derived macrophages were infected with ~5×10^5 CFU/M. abscessus strain ATCC19977 and 25 μM of the indicated BFA or DMSO vehicle control for 2 hours. Cells were washed and treated with the same BFA and 500 μg/mL amikacin (to kill extracellular bacteria) for 2 hours.\nTo determine whether BFA compounds could inhibit the virulence of Mycobacterium abscessus THP-1-derived macrophages were used."}, "[2]": {"test_system": "Burkholderia FixLJ pathway (Fix-GFP reporter in B. multivorans strain VC7102)", "experiment": "Fix-GFP reporter activation screen (GFP fluorescence)"}, "B. thailandensis": {"test_system": "B. thailandensis", "experiment": "microbe, parasite or virus in culture", "assay_type": "cell-based"}, "B. multivorans": {"test_system": "B. multivorans", "experiment": "Invasion/intracellular survival in THP-1-derived macrophages", "assay_type": "cell-based", "details": "4 h"}, "B. cenocepacia": {"test_system": "B. cenocepacia", "experiment": "Invasion/intracellular survival in THP-1-derived macrophages", "assay_type": "cell-based", "details": "4 h"}, "B. dolosa strain AU0158": {"test_system": "B. dolosa strain AU0158", "experiment": "Invasion of and/or intracellular survival in THP-1-derived macrophages, antibiotic exclusion assay", "assay_type": "cell-based, B. dolosa strain AU0158 (in human THP-1-derived macrophages)"}},
  "note": "Read-outs that look alike come from different tables or passages of the source.",
  "data": [
    {"smiles": "CCCCN(C)CCCNC(=O)Cn1ncc2c3ccccc3n(Cc3cccc(Cl)c3)c2c1=O", "note": "[BFA7, N-{3-[Butyl(Methyl)Amino]Propyl}-2-{5-[(3-Chlorophenyl)Methyl]-4-Oxo-3h,4h,5h-Pyridazino[4,5-B]Indol-3-Yl}Acetamide]", "values": [
      {"measurement": "inhibition of PA14-induced cytotoxicity", "setting": "[1]", "result": "able to significantly reduce cytotoxicity"},
      {"measurement": "inhibition of intracellular invasion/survival of M. abscessus", "setting": "Mycobacterium abscessus", "result": "able to inhibit the intracellular invasion/survival within the macrophages"}
    ]},
    {"smiles": "NC(CO)C(=O)NNCc1ccc(O)c(O)c1O", "note": "(centres unmarked) [Benserazide, benserazide]", "values": [
      {"measurement": "GFP activity above the mean of the negative control (DMSO)", "setting": "[2]", "result": "more than 3 standard deviations"}
    ]},
    {"smiles": "CCc1ccccc1N1CC(c2nc3ccccc3n2CCCCOc2ccccc2)CC1=O", "note": "(centres unmarked) [BFA3, 1-(2-ETHYLPHENYL)-4-[1-(4-PHENOXYBUTYL)-1H-1,3-BENZODIAZOL-2-YL]PYRROLIDIN-2-ONE]", "values": [
      {"measurement": "inhibition of PA14-induced cytotoxicity", "setting": "[1]", "result": "able to significantly reduce cytotoxicity"},
      {"measurement": "inhibition of intracellular invasion/survival of M. abscessus", "setting": "Mycobacterium abscessus", "result": "able to inhibit the intracellular invasion/survival within the macrophages"}
    ]},
    {"smiles": "Cc1ccccc1-n1c(/C=C/c2ccc(N(C)C)cc2)nc2ccccc2c1=O", "note": "[BFA6, 2-[(1E)-2-[4-(DIMETHYLAMINO)PHENYL]ETHENYL]-3-(2-METHYLPHENYL)-3,4-DIHYDROQUINAZOLIN-4-ONE]", "values": [
      {"measurement": "inhibition of PA14-induced cytotoxicity", "setting": "[1]", "result": "able to significantly reduce cytotoxicity"},
      {"measurement": "inhibition of invasion/survival of B. thailandensis", "setting": "B. thailandensis", "result": "able to inhibit the invasion/survival of B. thailandensis"}
    ]},
    {"smiles": "COCCNC(=O)CCn1c(=O)c2cc(OC)c(OC)cc2n(CC(=O)Nc2ccccc2OC)c1=O", "note": "[BFA2, 3-(6,7-Dimethoxy-1-{[(2-Methoxyphenyl)Carbamoyl]Methyl}-2,4-Dioxo-1,2,3,4-Tetrahydroquinazolin-3-Yl)-N-(2-Methoxyethyl)Propanamide]", "values": [
      {"measurement": "inhibition of intracellular invasion/survival of M. abscessus", "setting": "Mycobacterium abscessus", "result": "able to inhibit the intracellular invasion/survival within the macrophages"}
    ]},
    {"smiles": "CCCCCCc1cc2cc(-c3nnc(-c4ccc(C)cc4)o3)c(=O)oc2cc1O", "note": "[BFA1, 6-HEXYL-7-HYDROXY-3-[5-(4-METHYLPHENYL)-1,3,4-OXADIAZOL-2-YL]-2H-CHROMEN-2-ONE]", "values": [
      {"measurement": "inhibition of invasion/survival of B. multivorans", "setting": "B. multivorans; 25 μM, THP-1-derived macrophages", "result": "inhibited the invasion/survival of all three additional Burkholderia species"},
      {"measurement": "minimal effective concentration", "setting": "B. multivorans; Burkholderia multivorans, Macrophage, read-out: dose inhibiting invasion/survival of B. multivorans", "result": 6.25, "unit": "µM"},
      {"measurement": "inhibition of intracellular invasion/survival of M. abscessus", "setting": "Mycobacterium abscessus", "result": "able to inhibit the intracellular invasion/survival within the macrophages"},
      {"measurement": "inhibition of invasion/survival of B. thailandensis", "setting": "B. thailandensis; 25 μM, 4 h", "result": "able to inhibit the invasion/survival of B. cenocepacia (FIG. 3B) and B. thailandensis"},
      {"measurement": "minimal effective concentration", "setting": "B. thailandensis; Burkholderia thailandensis, Macrophage, 2 h, read-out: dose inhibiting invasion/survival of B. thailandensis", "result": 6.25, "unit": "µM"},
      {"measurement": "inhibition of invasion/survival of B. cenocepacia", "setting": "B. cenocepacia; 25 μM", "result": "able to inhibit the invasion/survival of B. cenocepacia"},
      {"measurement": "dose needed to inhibit B. cenocepacia", "setting": "B. cenocepacia; dose range, compared with 6.25 μM", "result": "higher doses were needed to inhibit B. cenocepacia"},
      {"measurement": "inhibition of invasion/survival of B. dolosa in macrophages", "setting": "B. dolosa strain AU0158", "result": "inhibited virulence at a lower concentration and at a greater magnitude than the other BFA compounds"},
      {"measurement": "inhibition of invasion/survival of B. dolosa in macrophages", "setting": "B. dolosa strain AU0158; for BFA 2-8 at highest dose tested", "result": "~ 75%"}
    ]}
  ]
}
